Measured values from patent US20060167057A1, “Compounds for the treatment of CNS and amyloid associated diseases” (priority 2004, published 2006).

Biological target: T1, L1 transport system (large neutral amino acid carrier, L1-system carrier) (Rattus norvegicus, UniProt Q63016)
T1 construct: functionality of their endogenous transporters such as the L1-system carrier; endogenous in cells; host or cells: rat primary cerebrovascular (brain microcapillary) endothelial cells, RBEC
Assay: Competitive binding assay to the brain L1 transport system (L-[U-14C]phenylalanine on rat primary cerebrovascular endothelial cells)
Settings: for Status of Binding: compounds of Example 4, 10^−6, 10^−5 and 10^−4, Δ versus phenylalanine
Experimental: Compound samples in PBS (without Ca^+2, Mg^+2)-glucose 30 mM-HEPES 10 mM—DMSO 1% as prepared in Example 1 were thawed and left for at least 30 minutes at 20-23° C. before preparation of the following sub-dilutions for the competitive binding assay: • 200 μL of the stock solution were added to 800 μL PBS (without Ca^+2, Mg^+2)-Glucose-HEPES-1% DMSO (PBSD-1) [diluted 1:5 for a final 1:5 dilution] • 100 μL (1/5 dilution above) were added to 900 μL PBSD-1 [diluted 1:10 for a final 1:50 dilution] • 100 μL (1/50 dilution above) were added to 900 μL PBSD-1 [diluted 1:10 for a final 1:500 dilution]
These sub-dilutions were used immediately or stored overnight at 4° C. before the competitive binding assay. A volume of 45 μL of each of the compound dilutions (1:5, 1:50, 1:500) in PBSD-1 was added to the appropriate wells in the dilution plate.
Brains from sixty 24-day-old rats were dissected individually on a sterile lint moistened with ice cold Hanks' balanced salt solution (Gibco BRL, Grand Island, N.Y.) containing 10 mM HEPES (medium 1) supplemented with 0.1% BSA. Cerebellum, striatum, optic nerves, and brain stem (white matter) were removed. After a mid-sagittal section of the brain, the meninges and leptomeningeal debris were removed by rolling a sterile dry cotton swab on the cortices. (Ichikawa N, Naora K, Hirano H, Hashimoto M, Masumura S, and Iwamoto K (1996). Isolation and primary culture of rat cerebral microvascular endothelial cells for studying drug transport in vitro. J Pharmacol Toxicol Meth 36: 45-52.). Clean cortices were minced in pieces of ≈2 mm^3 in 15 mL of ice-cold medium 1-0.1% BSA. The preparation was divided into 4 sterile pre-weighed tubes and centrifuged at 330× g at 20-25° C. for 5 min. Tubes were weighed and pre-warmed (37° C.) and medium 1 with 0.5% BSA containing 0.3% collagenase and 10 μg/mL DNAse 1 (Roche, Laval, Quebec, Canada) were added to each tube (1 mL/g of tissue).
The brain-collagenase mixture was vigorously agitated in a water bath at 37° C. for 90 min. Fifteen min before the end of the digestion, the tissue was homogenized using a 10-mL pipette until a creamy mixture was obtained (≈20 aspirations). Cells were washed by adding medium 1 with 0.1% BSA to the homogenate (26 mL/tube) and centrifuged at 100× g at 20-25° C. for 7 min. This washing step was repeated 3 more times, once for 5 min and twice for 3 min. Each pellet was re-suspended in 25 mL of a 15% dextran solution prepared in medium 1 with 0.1% BSA and centrifuged at 3200× g at 4° C. for 25 min to isolate vessels from neural tissue and dextran layers. Vascular pellets were re-suspended in 5 mL Ca^++—Mg^++-free-medium 1 with 0.1% BSA (medium 2) at 20-25° C. and transferred in a 50-mL tube. Remaining vessels were collected by rinsing the tubes and pooling the rinsing suspension. (Rupnick M A, Carey A, and Williams S K (1988). Phenotypic diversity in cultured cerebral microvascular endothelial cells in vitro. Cell Develop Biol 24: 435-444.)
The vascular preparation was filtered and rinsed (20 mL of medium 2) through a sterile 355-μm mesh. The 355-μm filtrate was sequentially filtered twice (20 mL of medium 2) through sterile 112-μm meshes and rinsed (Stanimirovic D B, Wong J, Ball R, and Durkin J P (1995). Free radical-induced endothelial membrane dysfunction at the site of the blood-brain barrier: relationship between lipid peroxidation, Na,K-ATPase activity, and ^51Cr release. Neurochem Res 20:1417-1427.) and the latter filtrate was filtered and rinsed through a sterile 20-μm mesh. A final step of filtration and rinse was repeated through a double layer of 20-μm meshes. All 20-μm meshes, which retained the microcapillaries, were then transferred into a 50-mL tube containing 20 mL of a 0.1% collagenase/dispase (Roche) solution in medium 2 supplemented with 10 μg/mL DNAse 1 and 0.147 μg/mL tosyl-lysine-chloromethyl-ketone (Sigma Chemical Co., Oakville, Ontario, Canada) (medium 3).

T1 sequence (Q63016 whole entry): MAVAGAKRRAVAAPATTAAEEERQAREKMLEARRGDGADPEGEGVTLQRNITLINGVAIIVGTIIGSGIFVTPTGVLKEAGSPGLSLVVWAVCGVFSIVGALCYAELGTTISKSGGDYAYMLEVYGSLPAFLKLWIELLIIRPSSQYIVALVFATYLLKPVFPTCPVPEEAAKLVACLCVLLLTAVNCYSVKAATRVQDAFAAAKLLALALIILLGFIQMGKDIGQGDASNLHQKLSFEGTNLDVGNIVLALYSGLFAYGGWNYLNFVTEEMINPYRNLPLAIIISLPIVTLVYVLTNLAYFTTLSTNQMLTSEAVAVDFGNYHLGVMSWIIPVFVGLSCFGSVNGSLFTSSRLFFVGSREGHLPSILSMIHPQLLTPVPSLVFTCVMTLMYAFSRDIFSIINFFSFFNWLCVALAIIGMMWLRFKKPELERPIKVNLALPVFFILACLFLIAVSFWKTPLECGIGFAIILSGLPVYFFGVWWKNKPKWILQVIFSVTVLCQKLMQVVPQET
T1 sequence (Q794F9 whole entry partner): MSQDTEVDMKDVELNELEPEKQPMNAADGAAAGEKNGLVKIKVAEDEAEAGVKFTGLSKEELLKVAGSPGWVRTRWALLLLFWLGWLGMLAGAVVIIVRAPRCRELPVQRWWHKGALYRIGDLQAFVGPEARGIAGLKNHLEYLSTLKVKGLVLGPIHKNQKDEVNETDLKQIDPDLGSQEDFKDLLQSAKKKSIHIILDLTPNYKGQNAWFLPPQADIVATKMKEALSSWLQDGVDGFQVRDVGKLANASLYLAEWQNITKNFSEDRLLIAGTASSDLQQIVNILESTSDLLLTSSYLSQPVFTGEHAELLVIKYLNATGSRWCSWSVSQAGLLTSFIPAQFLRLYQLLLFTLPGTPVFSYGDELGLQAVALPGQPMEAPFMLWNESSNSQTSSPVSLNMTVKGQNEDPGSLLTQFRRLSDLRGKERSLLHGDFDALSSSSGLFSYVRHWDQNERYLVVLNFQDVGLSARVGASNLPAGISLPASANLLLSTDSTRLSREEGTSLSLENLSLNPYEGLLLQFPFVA

| SMILES | Comparison with the Binding of Phenylalanine (10^−4 M) | Comparison with the Binding of Phenylalanine (10^−5 M) | Comparison with the Binding of Phenylalanine (10^−6 M) | Status of Binding |
| --- | --- | --- | --- | --- |
| N[C@@H](Cc1ccccc1)C(=O)NC(Cc1cccc(CSc2nnc(-c3ccccc3)o2)c1)C(=O)O (stereo partly drawn) [Compound 48] | 0 (X < 0 Rank 0) | 1 (0 < X < 10 Rank 1) | 1 (0 < X < 10 Rank 1) | – |
| Cc1nnc(SCc2cccc(CC(N)C(=O)O)n2)s1 (stereo not drawn) [Compound 96] | 0 (X < 0 Rank 0) | 1 (0 < X < 10 Rank 1) | 1 (0 < X < 10 Rank 1) | – |
| O=C(O)C(Cc1cccc(CSc2nnc(-c3ccncc3)o2)c1)NS(=O)(=O)c1ccc(F)cc1 (stereo not drawn) [Compound 12] | 0 (X < 0 Rank 0) | 0 (X < 0 Rank 0) | 2 (10 < X < 20 Rank 2) | – |
| N[C@@H](Cc1cccc(CS(=O)(=O)c2ncc[nH]2)c1)C(=O)O [drawing 483] | – | – | – | 1 (1: −10 > Δ > −50%, lower binding affinity than phenylalanine) |
| N[C@@H](Cc1cccc(CSc2nnc(-c3ccccc3)[nH]2)c1)C(=O)O [drawing 470] | – | – | – | 2 (2: 10% ≧ Δ ≧ −10% similar binding affinity to phenylalanine) |
| NC(Cc1ccc(-c2ccc(CN3CCN(c4ccc(F)cc4)CC3)cc2)cc1)C(=O)O (stereo not drawn) [Compound 120] | 0 (X < 0 Rank 0) | 1 (0 < X < 10 Rank 1) | 1 (0 < X < 10 Rank 1) | – |
| NC(Cc1cccc(CSc2ccnc3cc(C(F)(F)F)ccc23)n1)C(=O)O (stereo not drawn) [Compound 45] | 0 (X < 0 Rank 0) | 2 (10 < X < 20 Rank 2) | 0 (X < 0 Rank 0) | – |
| NC(Cc1cccc(-c2cccc(Sc3ccc4ccccc4n3)c2)c1)C(=O)O (stereo not drawn) [Compound 144] | 0 (X < 0 Rank 0) | 0 (X < 0 Rank 0) | 1 (0 < X < 10 Rank 1) | – |
| NC(Cc1cccc(CSc2nnnn2-c2ccccc2)c1)C(=O)O (stereo not drawn) [Compound 8] | 3 (X > 20 Rank 3) | 3 (X > 20 Rank 3) | 3 (X > 20 Rank 3) | – |
| O=C(Nc1ccc(-c2ccccc2)cc1)NC(Cc1cccc(CSc2nc3ccccc3[nH]2)n1)C(=O)O (stereo not drawn) [Compound 62] | 0 (X < 0 Rank 0) | 0 (X < 0 Rank 0) | 3 (X > 20 Rank 3) | – |
| NC(Cc1ccc(-c2ccc(CN3CC=CCC3)cc2)cc1)C(=O)O (stereo not drawn) [Compound 44] | 0 (X < 0 Rank 0) | 1 (0 < X < 10 Rank 1) | 0 (X < 0 Rank 0) | – |
| NC(=O)C(N)Cc1cccc(CSc2nccc(C(F)(F)F)n2)n1 (stereo not drawn) [Compound 22] | 0 (X < 0 Rank 0) | 1 (0 < X < 10 Rank 1) | 0 (X < 0 Rank 0) | – |
| NC(Cc1ccc(-c2ccc(CSc3nc4cc([N+](=O)[O-])ccc4[nH]3)cc2)cc1)C(=O)O (stereo not drawn) [Compound 124] | 0 (X < 0 Rank 0) | 1 (0 < X < 10 Rank 1) | 1 (0 < X < 10 Rank 1) | – |
| Cn1cnnc1SCc1cccc(CC(N)C(=O)O)n1 (stereo not drawn) [Compound 156] | 1 (0 < X < 10 Rank 1) | 1 (0 < X < 10 Rank 1) | 2 (10 < X < 20 Rank 2) | – |
| NC(Cc1cccc(-c2cccc(N3CCN(c4ccc(F)cc4)CC3)c2)c1)C(=O)O (stereo not drawn) [Compound 105] | 2 (10 < X < 20 Rank 2) | 2 (10 < X < 20 Rank 2) | 2 (10 < X < 20 Rank 2) | – |
| N[C@@H](Cc1ccccc1)C(=O)NC(Cc1cccc(CSc2nc3ccccc3[nH]2)n1)C(=O)O (stereo partly drawn) [Compound 29] | 0 (X < 0 Rank 0) | 1 (0 < X < 10 Rank 1) | 3 (X > 20 Rank 3) | – |
| N[C@@H](Cc1ccccc1)C(=O)NC(Cc1cccc(CSc2nc3ccccc3o2)n1)C(=O)O (stereo partly drawn) [Compound 32] | 0 (X < 0 Rank 0) | 1 (0 < X < 10 Rank 1) | 3 (X > 20 Rank 3) | – |
| N#CC1(c2ccccc2)CCN(Cc2cccc(CC(N)C(=O)O)c2)CC1 (stereo not drawn) [Compound 102] | 1 (0 < X < 10 Rank 1) | 1 (0 < X < 10 Rank 1) | 0 (X < 0 Rank 0) | – |
| CN(C)CCn1nnnc1SCc1cccc(C[C@H](N)C(=O)O)c1 [drawing 485] | – | – | – | 1 (1: −10 > Δ > −50%, lower binding affinity than phenylalanine) |
| NC(Cc1cccc(CSc2nc3cc([N+](=O)[O-])ccc3[nH]2)c1)C(=O)O (stereo not drawn) [Compound 79] | 2 (10 < X < 20 Rank 2) | 3 (X > 20 Rank 3) | 0 (X < 0 Rank 0) | – |
| Cn1cnnc1Sc1cccc(-c2cccc(CC(N)C(=O)O)c2)c1 (stereo not drawn) [Compound 82] | 2 (10 < X < 20 Rank 2) | 3 (X > 20 Rank 3) | 1 (0 < X < 10 Rank 1) | – |
| NC(=O)C(N)Cc1cccc(CSc2nnnn2-c2ccc(O)cc2)c1 (stereo not drawn) [Compound 4] | 2 (10 < X < 20 Rank 2) | 3 (X > 20 Rank 3) | 3 (X > 20 Rank 3) | – |
| CC(=O)c1ccc(N2CCN(Cc3cccc(CC(N)C(=O)O)n3)CC2)cc1 (stereo not drawn) [Compound 127] | 1 (0 < X < 10 Rank 1) | 2 (10 < X < 20 Rank 2) | 0 (X < 0 Rank 0) | – |
| NC(=O)C(N)Cc1cccc(CSc2nc3ccccc3o2)n1 (stereo not drawn) [Compound 31] | 0 (X < 0 Rank 0) | 0 (X < 0 Rank 0) | 2 (10 < X < 20 Rank 2) | – |
| NC(Cc1cccc(CSc2nc(-c3ccccc3)c(-c3ccccc3)[nH]2)n1)C(=O)O (stereo not drawn) [Compound 148] | 0 (X < 0 Rank 0) | 0 (X < 0 Rank 0) | 2 (10 < X < 20 Rank 2) | – |
| O=C(Nc1ccc(-c2ccccc2)cc1)NC(Cc1cccc(CSc2nnnn2-c2ccccc2)c1)C(=O)O (stereo not drawn) [Compound 54] | 1 (0 < X < 10 Rank 1) | 3 (X > 20 Rank 3) | 2 (10 < X < 20 Rank 2) | – |
| NC(Cc1cccc(-c2cccc(N3CC=CCC3)c2)c1)C(=O)O (stereo not drawn) [Compound 43] | 0 (X < 0 Rank 0) | 2 (10 < X < 20 Rank 2) | 0 (X < 0 Rank 0) | – |
| N#CC1(c2ccccc2)CCN(Cc2cccc(CC(N)C(=O)O)n2)CC1 (stereo not drawn) [Compound 117] | 0 (X < 0 Rank 0) | 0 (X < 0 Rank 0) | 1 (0 < X < 10 Rank 1) | – |
